Experimental data as given in US12576082B2, “METTL16 inhibitors and uses thereof” (City of Hope, priority 2019, dated 2026).

Columns and labels:
AML cells = test: Cell viability and growth in AML cells (FIGS. 9A-9B); type: cell-based
Description: (§1) Cell viability and proliferation assay. Cell viability and proliferation were performed with CellTiter 96 Non-Radioactive Cell Proliferation Assay (MTT, […], Promega). To verify the function of METTL16 inhibitor, cancer cells were seeded into 96-well plate and treated with a series of drug concentration in triplicates. For the cell proliferation with METTL16 knockdown stable cell lines were seeded into 96-well plates, and cultured in the incubator at 37° C. with 5% CO2. 15 μl of the Dye Solution was added into each well. After incubation of 2-4 h, 100 μl of the Solubilization Solution/Stop Mix was added to each well. Finally, the absorbance was determined at 570 nm on the next day.

METTL16 [1] = biological target: T1, METTL16 (Homo sapiens, UniProt Q86W50); test: Drug affinity responsive target stability (DARTS) in U937 cell lysates; type: binding; conditions: CDH24 0.1 uM to 500 uM, pronase digestion, immunoblot
T1 construct: endogenous in cells; host or cells: U937, Kasumi-1, MA9.3RAS (human AML cells)
T1 sequence (Q86W50 1-562): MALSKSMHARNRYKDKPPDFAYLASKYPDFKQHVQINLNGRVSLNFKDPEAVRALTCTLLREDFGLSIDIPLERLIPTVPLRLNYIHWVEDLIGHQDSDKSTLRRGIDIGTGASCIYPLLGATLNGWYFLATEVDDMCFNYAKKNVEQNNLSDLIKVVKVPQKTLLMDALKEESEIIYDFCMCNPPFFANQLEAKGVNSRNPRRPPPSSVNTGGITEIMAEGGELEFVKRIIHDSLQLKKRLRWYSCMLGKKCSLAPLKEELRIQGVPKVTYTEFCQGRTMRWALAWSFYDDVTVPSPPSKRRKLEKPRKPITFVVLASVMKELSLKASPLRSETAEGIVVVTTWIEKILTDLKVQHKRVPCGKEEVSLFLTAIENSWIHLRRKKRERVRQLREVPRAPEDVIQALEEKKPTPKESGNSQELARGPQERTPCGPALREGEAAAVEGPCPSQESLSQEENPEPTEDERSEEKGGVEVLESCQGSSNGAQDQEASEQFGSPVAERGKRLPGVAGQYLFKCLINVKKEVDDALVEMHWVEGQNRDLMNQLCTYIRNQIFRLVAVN
Description: Drug Affinity Responsive Targets Stability (DARTS). […] In short, 4×10^7 U937 cells were collected, washed with chilled PBS, and lysed in 600 ul M-PER (78501, Thermo Fisher Scientific) supplement with protease inhibitor cocktail and phosphatase inhibitor cocktail. The cells were lysed on ice for 10 min, and centrifuged at 18,000 g for 10 min at 4° C. The supernatant was carefully transferred to a new tube. 10× TNC buffer (500 mM Tris-HCl with pH 8.0, 500 mM NaCl, 100 mM CaCl2) was added into lysate, the protein concentration was then detected by BCA assay. The protein concentration diluted with 1× TNC buffer was adjusted to 5 ug/ul. […] The reaction was quenched by addition of protease inhibitor cocktail and the sample was immediately placed on ice. 4× Laemmli Sample Buffer was added to lysate and denatured at 99° C. for 10 min. Finally, western blotting was used to determine the abundance of METTL16.
(§2) For DARTS, U937 cell lysates were treated with CDH-24 (from 0.1 uM to 500 uM) or DMSO; samples were subjected to pronase digestion and detected by immunoblotting. Actin was resistant to subtilizing under these conditions and served as a loading control. […] METTL16 knockdown by shRNAs was confirmed by western blots (FIG. 5D). […] In FIGS. 5A-5F: *p<005; **p<0.01: ***p<0001; t test. Error bars, mean±SEM (n≥3).

AML and other cancers = test: Cell viability of cancer cell lines on CDH24 treatment (MTT); type: cell-based, human
Description: as §1
FIG. 4A provides a Western blots analysis showing the levels of METTL16 expression in various AML cell lines (Kasumi-1, MONOMAC6 (MM6), K562, ML-2, 9.3ITD, U937) and normal bone marrow (BM) mononuclear cells. Actin served as a loading control. […] The values were detected by MTT assays 48 or 72 hours post treatment. In FIGS. 4A-4K: *p<0.05; **p<0.01; ***p<0.001; t test. Error bars, mean±SEM (n≥3)

METTL16 [2] = biological target: T1, METTL16; test: Cellular thermal shift assay (CETSA) in U937 cells; type: binding; conditions: 50 μM CDH24 1 h, different temperatures, immunoblot
Description: Cellular Thermal Shift Assay (CETSA). […] Then, the cells were re-suspended in 1.5 ml PBS supplemented with protease inhibitor cocktail. And the cells were distributed into 10 different 200 ul 8-strip PCR tubes with 100 ul for each tube, heat shocked in the Bio-Rad T100 Thermal Cycler at indicated temperature for 3 min to denature proteins, and immediately cooled down at room temperature for 3 min. cells were lysed using dry ice and two repeated cycles of freeze-thaw, then centrifuged at 20,000 g for 20 min at 4° C. Soluble proteins, collected from the supernatant were denatured with 4× Laemmli Sample Buffer at 99° C. for 10 min. Finally, the protein samples were analyzed by western blot.
as §2

METTL16 [3] = biological target: T1, METTL16; test: m6A dot blot, global m6A in AML cells; type: cell-based
Description: m^6A dot blot assay. Total RNA was purified with QIAzol regent, and mixed well with 3 volumes of RNA incubation buffer, then denatured at 65° C. for 5 minutes and cooling down on ice immediately. 200 ul of 10×SSC buffer (S6639, Sigma-Aldrich) was loaded onto the Amersham Hybond-N+ membrane for each well to pre-wet the membrane. Then one volume of 20×SSC buffer was added into the RNA samples before dotted onto the membrane. The UV irradiation was used to crosslink RNA to the membrane. After crosslink, the membrane was stained by 0.02% methylene blue and scanned as loading control. Then, the membrane was blocked with 5% nonfat dry milk at room temperature for 1 h and incubated with anti-m6A antibody (1:2000, Synaptic Systems) overnight at 4° C. Next day, the membrane was incubated with the HRP-conjugated goat anti-rabbit IgG (ab6721, abcam) at room temperature for 1 h and developed with pierce ECL Western blotting Substrate (PI32106, Thermo Fisher).
MB, methyl blue (as loading control). FIGS. 6B-6C show gene-specific m^6A qPCR analysis of m^6A level changes in mRNA transcripts of several known target transcripts of METTL16 in U937 (FIG. 6B) or MA9.3RAS (FIG. 6C) AML cells upon 72 hours treatment of […], relative to cells treated with DMSO.

human NOMO-1 AML cells = test: Viability of human NOMO-1 AML cells (MTT, CellTiter 96); type: cell-based; conditions: NOMO-1 cells, 10,000 cells/well, 72 h treatment, read-out: IC50 in inhibiting the viability of human NOMO-1 AML cells
Description: as §1
The compounds described herein were tested for their ability to inhibit the viability of human NOMO-1 AML cells. […] Cell viability. NOMO-1 cells were seeded into 96-well plate in the concentration of 10,000 cells/well and treated with compounds in triplicates for 72 h. Cell viability was assessed by CellTiter 96 Non-Radioactive Cell Proliferation Assay (MTT, G4100, Promega) following the manufacturer's protocols.

Nc1ccc(Cn2ccc3c4c(N)nc(N)nc4ccc32)c(CO)c1 [CDH24-6]
cell viability and growth in AML cells (AML cells): inhibit cell viability and growth

Nc1ccc(CO)c(Cn2ccc3c4c(N)nc(N)nc4ccc32)c1 [CDH24-7]
cell viability and growth in AML cells (AML cells): inhibit cell viability and growth

Nc1ccc(Cn2ccc3c4c(N)nc(N)nc4ccc32)cc1 [CDH24]
binding to METTL16 by DARTS (METTL16 [1]): direct binding
cell viability and growth in AML and other cancers (AML and other cancers; FIGS. 4A-4K): inhibitory effect
cell viability in ALL, lymphoma, cervical cancer, pancreatic cancer and glioblastoma cell lines (AML and other cancers; MTT assay 72 hours post treatment, series of concentrations): inhibitory effects
binding to METTL16 by CETSA (METTL16 [2]): direct binding
methyltransferase activity of METTL16 and expression of METTL16 target genes (METTL16 [3]; FIGS. 6A-6C): inhibitory effect
levels of global m^6A (METTL16 [3]; U937, Kasumi-1 and MA9.3RAS AML cells, 48 hours treatment): increases

N#Cc1ccc(-n2ccc3c4c(N)nc(N)nc4ccc32)cc1 [Compound (E)]
IC50 (human NOMO-1 AML cells): 20.6 nM

Nc1nc(N)c2c(ccc3c2ccn3Cc2ccc(Cl)cc2)n1 [Compound (F)]
IC50 (human NOMO-1 AML cells): 1.55 nM

N#Cc1ccc(C(=O)n2ccc3c4c(N)nc(N)nc4ccc32)cc1 [Compound (G)]
IC50 (human NOMO-1 AML cells): 736 nM

CC(=O)Nc1ccc(Cn2ccc3c4c(N)nc(N)nc4ccc32)cc1 [Compound D]
IC50 (human NOMO-1 AML cells): 1.4 nM

Nc1nc(N)c2c(ccc3[nH]ccc32)n1 [Compound H]
IC50 (human NOMO-1 AML cells): 931 nM
